In data set [1] the target is T1, human calcitonin receptor (Homo sapiens, UniProt P30988).
T1 construct: Hollex encoded a protein of 474 amino acids; expressed in transfected cells; host or cells: BHK 570 / BHK/KZ10-20-48 (baby hamster kidney) stably transfected with pHollex
T1 sequence (P30988 25-474): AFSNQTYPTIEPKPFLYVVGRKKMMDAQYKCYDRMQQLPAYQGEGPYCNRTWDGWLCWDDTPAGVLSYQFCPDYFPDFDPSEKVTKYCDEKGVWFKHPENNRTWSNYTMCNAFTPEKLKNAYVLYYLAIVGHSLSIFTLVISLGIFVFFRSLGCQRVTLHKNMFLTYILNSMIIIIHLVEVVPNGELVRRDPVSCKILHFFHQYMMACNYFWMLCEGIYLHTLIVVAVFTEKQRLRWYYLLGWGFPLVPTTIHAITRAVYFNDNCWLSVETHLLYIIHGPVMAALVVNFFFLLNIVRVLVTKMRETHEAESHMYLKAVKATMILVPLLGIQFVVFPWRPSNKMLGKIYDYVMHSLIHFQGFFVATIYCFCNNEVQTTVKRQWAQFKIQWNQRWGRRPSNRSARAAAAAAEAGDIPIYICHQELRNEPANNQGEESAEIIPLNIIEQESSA
Nature of the data set: [Ca2+]i response of BHK cells expressing cloned calcitonin receptor to calcitonin and extracellular calcium (fura-2). The format is cell-based. The settings on record: for average peak [Ca2+]i response vs receptor number: each cell line expressing the calcitonin receptor. The protocol:
(§1) BHK cells expressing the cloned calcitonin receptor were assayed to determine their response to extracellular calcium. Cells were washed three times with a buffer (140 mM NaCl, 5 mM KCl, 0.5 mM MgCl2, 0.5 mM CaCl2 (concentration varied in some experiments), 10 mM glucose, 10 mM HEPES, pH 7.4) made using high purity salts (Aldrich, Milwaukee, Wis.) and sterile water (Baxter, McGaw Park, Ill.). Cells were loaded with fura-2 AM (Molecular Probes Inc.) (10 μg/ml) for 30 minutes essentially as described above, then washed an additional three times. Slides were mounted at room temperature on an inverted microscope (EPIPHOT, Nikon), and a field of cells (typically 20-30 cells) was located using a 40× Nikon fluor objective. The ratio of fura-2 emission at excitation wavelengths of 340 and 380 nm was recorded every 5 seconds. Individual cells were analyzed on a computer workstation (Sun Microsystems) using a software system designed for ratio imaging (Inovision). The concentration of calcium chloride in buffers was determined by comparison to calcium standards on a calcium analyzer (Nova Biomedical Corp. Waltham, Mass.). All experiments were reproduced three to eight times. Fura-2 ratio 340 nm to 380 nm values (R) were converted to [Ca^2+ ]i concentrations after calibration of the instrument using the formula: calcium (nm)=2240[R-0.3)/(20-R)]. Basal [Ca^2+ ]i concentrations were typically 80-150 nm. The peak fura-2 ratios 340/380 of individual cells exposed to 20 nm salmon calcitonin followed by 25 mM calcium chloride were averaged for some experiments and converted to [Ca^2+ ]i concentrations. Standard error was calculated at a 99% level using a Z score of 2.58 (n>30).

The test system of data set [2] is Control BHK cell lines. Put plainly: [Ca2+]i response of control (calcitonin receptor-negative) BHK cells to extracellular calcium. It is filed as cell-based, baby hamster. On the procedure: as §1, with “Fura-2 ratio 340 nm to 380 nm values (R) were converted to [Ca^2+ ]i concentrations after calibration of the instrument using the formula: calcium (nm)=2240[R-0.3)/(20-R)]. Basal [Ca^2+ ]i concentrations were typically 80-150 nm. The peak fura-2 ratios 340/380 of individual cells exposed to 20 nm salmon calcitonin followed by 25 mM calcium chloride were averaged for some experiments and converted to [Ca^2+ ]i concentrations.” left out

Data set [3] has as its target T1, human calcitonin receptor. Nature of the data set: Intracellular calcium response of Hollex1/Hollex2 cells (fura-2 imaging). It is filed as cell-based. A general note: Calcium assays in cells follow changes in intracellular calcium, usually with a dye or a luminescent sensor.
Data set [4] deals with bone resorption. The following applies: patients given long term treatment; Azria 1989; cited from earlier work.
Data set [5] relates to BHK/Zem228R. Nature of the data set: Binding/competition assay with BHK/Zem228R cells (negative control). On the set-up: species or system baby hamster. On the procedure: A pool of transfectants expressing the plaex 1 was tested for receptor-mediated binding to calcitonin using a competition assay. Hollex1 was used as a positive control and BHK cells transfected with Zem228R were used as a negative control.
The cells were plated at a density of 1×10^5 cells/well in a 24-well cell culture dish and allowed to grow for 48 hours at 37° C. and 5% CO2 in growth medium (described in previous examples). The cells were rinsed in binding medium as described in Example IIE. Three hundred microliters of hot binding medium containing 10 nM hCT and 5 μCi/ml ^125 I hCT. Cold competition was achieved by adding unlabelled hCT to a final concentration of 1 μM were added to appropriate wells. The cells were incubated 1.5 hours at room temperature. Unincorporated radioactivity was removed by three washes with PBS. Five hundred microliters of 1N NaOH was added to each well to solublize the cells. Each sample was counted on a gamma counter.

Where [6] appears, read: 25 mM extracellular calcium chloride, about 700,000 receptors/cell.
[7] abbreviates: cell lines expressing 100,000 and 150,000 receptors/cell.

As for `[Cl-].[K+]` [KCl], in data set [1] (instead of CaCl2, about 700,000 receptors/cell), the “[Ca2+]i response to 73 mM KCl” value is “no effect”.

Consider `[Ca+2].[Cl-].[Cl-]` [calcium chloride], for which, in data set [1] (setting [6]), the “magnitude of [Ca2+]i response relative to that induced by calcitonin” value was “comparable to that induced by calcitonin” and the “time for response to return to an elevated basal level” value is recorded as “about 20 minutes”. The “effect of calcitonin pretreatment on magnitude of response to extracellular calcium” value in data set [1] (25 mM, about 700,000 receptors/cell, p<0.01) is on record as “not significantly altered”. Besides, in data set [1] (700,000 receptors/cell), the “concentration of maximum response” value is listed as “approximately 14 mM”. Also, the EC50 in data set [1] (700,000 receptors/cell, double reciprocal plot, read-out: effective concentration for half-maximal response) was 8 to 10 mM. In addition, in data set [1] (700,000 receptors/cell, increase over basal (1.3 mM)), the “smallest increase in extracellular calcium giving a significant response” value came out at 2 mM. For the same compound, in data set [1] (BHK cells expressing recombinant calcitonin receptor), the “[Ca2+]i response to millimolar increases in extracellular calcium” value was “rapid and sustained elevation in [Ca^2+ ]i”. Moreover, the “[Ca2+]i response to 25 mM extracellular calcium for two minutes followed by continuous wash” value in data set [1] (about 700,000 receptors/cell) is “rapid and transient increase in [Ca^2+ ]i”. The “[Ca2+]i response to 25 mM extracellular calcium chloride” value in data set [1] (about 700,000 receptors/cell, with or without calcitonin pretreatment) was “rapid and sustained increase in [Ca2+ ]i”. Besides, the “[Ca2+]i response” value in data set [1] (setting [7]) was “increases in [Ca^2+ ]i”. Moreover, the “average peak [Ca2+]i response vs receptor number” value in data set [1] was “proportional to the average number of receptors per cell”. Also, the “response to extracellular calcium” value in data set [2] (Control BHK cell lines) is reported as “no response”. In addition, the “sensitivity to changes in extracellular calcium” value in data set [2] (three calcitonin receptor-negative BHK cell lines) is given as “no sensitivity”.

calcitonin: the “cells with a calcium response” value in data set [3] (Hollex1 cells) is recorded as 30-70%. Moreover, the “cells with a calcium response” value in data set [3] (Hollex2 cells) is on record as 1-5%. Besides, in data set [1] (setting [7]), the “[Ca2+]i response” value was “increases in [Ca^2+ ]i” and the “effect of calcitonin pretreatment on response to extracellular calcium” value is “marked potentiation”. In addition, in data set [1], the “average peak [Ca2+]i response vs receptor number” value is given as “proportional to the average number of receptors per cell”. Moreover, in data set [4], the “resistance cases not accompanied with antibody formation” value is “approximately 50%”.

Regarding “human calcitonin: human calcitonin (hCT), natural peptide hormone ligand of the calcitonin receptor”, the hot in data set [5] (10 nM hCT and 5 μCi/ml 125I hCT) turned out to be 147 cpm. For the same compound, in data set [5] (plus unlabelled hCT 1 μM), the hot/cold is reported as 105 cpm.

The values above are taken from patent US5622839A (ZymoGenetics, Inc., priority 1995, dated 1997).
